Test results as given in patent US20200095296A1, “USE OF PEPTIDES AS BIOMARKERS IN THE DIAGNOSIS, CONFIRMATION AND TREATMENT OF A NEUROLOGICAL DISORDER AND TCR AND/OR HLA IMMUNOPROFILING IN NEURODEGENERATIVE DISEASE” (THE TRUSTEES OF COLUMBIA UNIVERSITY IN THE CITY OF NEW YORK, priority 2017, published 2020).
Where no end group is shown, it is not given here. [ ]: non-standard residue; d: D form. pT = C[C@@H](OP(=O)(O)O)[C@H](N)C(=O)O; pS = N[C@@H](COP(=O)(O)O)C(=O)O

Tested on: PBMC
Test: IFNg/IL-5 dual ELISPOT after 14 day in vitro stimulation of PBMC with Tau peptides
Type: cell-based, human
Settings: for PD % of Total Responders / PD Total SFC / PD Total Responders: PD donors; for % of total response / Average SFC per responder / Frequency of response / Total SFC per epitope: across all cohorts; for Total Responders / Total SFC: all three cohorts (PD, HC > 50, HC < 35); for HC < 35 Total Responders / HC < 35 Total SFC: healthy controls < 35 years old
Excerpt: It was investigated whether T cell responses against Tau were detectable in the PD and healthy control (HC) donors. To this end, a panel of overlapping peptides spanning through the entire sequence of the Tau protein was synthesized. Since it is known that the Tau protein is post-translationally modified (mainly by phosphorylation), in several instances phosphorylated peptides were also synthesized. In all, 55 non-modified 16-mers overlapping by 8 and 14 modified 16-mers were synthesized.
PD: n=16, peptides tested 14-16 times; HC above 50 years old denominated as age-matched: n=11 (9-11 times) and HC below 35 years old (HC Young): n=13 (10-13 times).
These peptides were tested utilizing the following assay strategy. Briefly, PBMC from each donor were stimulated in vitro for 14 days as described (Hinz, D., 2015) with pools of 10 to 16 peptides each. After 14 days, the T cell cultures were assayed with IFNg/IL-5 dual ELISPOT assays […]. Positive pools were deconvoluted at day 17 to identify the specific individual epitopes recognized.

[1] = healthy controls > 50 years old

| Sequence | PD/HC > 50 Ratio of % Responders | PD/HC > 50 Ratio of Response | HC > 50 % of Total Responders [%] | HC > 50 Total SFC (HC > 50, dominant epitopes) [SFC] | PD % of Total Responders [%] | PD Total SFC (dominant epitopes) [SFC] | % of total response [%] | Average SFC per responder [SFC] | Frequency of response | Total SFC per epitope [SFC] | PD Total Responders | PD Total SFC [SFC] | Total Responders | Total SFC [SFC] | HC < 35 Total Responders | HC < 35 Total SFC [SFC] | HC > 50 Total Responders [1] | HC > 50 Total SFC [1] [SFC] |
| --- | --- | --- | --- | --- | --- | --- | --- | --- | --- | --- | --- | --- | --- | --- | --- | --- | --- | --- |
| LATLADEVSASLAKQG (listed as Homo sapiens) [Tau 16-mer, start 425] | 0.3 | 0.5 | 75.0 | 2530 | 25.0 | 1263 | 1.1 | 948 | 7.5 | 3793 | – | – | – | – | – | – | – | – |
| PAPKTPPSSGEPPKSG (PAPK[pT]PPSSGEPPKSG; listed as Homo sapiens) | – | – | – | – | – | – | – | – | – | – | 0 | 0 | 1 | 107 | 0 | 0 | 1 | 107 |
| PAPKXPPSSGEPPKSG (PAPK[pT]PPSSGEPPKSG) | 1.8 | 2.4 | 19.2 | 6207 | 34.6 | 14672 | 12.2 | 1639 | 49.1 | 42624 | 9 | 14672 | 26 | 42624 | 12 | 21745 | 5 | 6207 |
| PMPDLKNVKSKIGSTE (PMPDLKNVKSKIG[pS]TE; listed as Homo sapiens) [Tau 16-mer, start 249] | 1.7 | 2.2 | 30.0 | 6084 | 50.0 | 13363 | 5.7 | 1982 | 18.9 | 19815 | 5 | 13363 | 10 | 19815 | 2 | 368 | 3 | 6084 |
| PMPDLKNVKSKIGZTE | 1.3 | 1 | 36.4 | 5168 | 45.5 | 5175 | 3.2 | 1006 | 20.8 | 11063 | 5 | 5175 | 11 | 11063 | 2 | 720 | 4 | 5168 |
| SLEDEAAGHVTQARMV (listed as Homo sapiens) [Tau 16-mer, start 113] | 2.0 | 11 | 33.3 | 640 | 66.7 | 7058 | 2.2 | 1283 | 11.3 | 7698 | – | – | – | – | – | – | – | – |
| SNVSSTGSIDMVDSPQ (listed as Homo sapiens) [Tau 16-mer, start 409] | – | – | – | – | – | – | – | – | – | – | 2 | 710 | 3 | 1767 | 0 | 0 | 1 | 1057 |
| SNVSSTGSIDMVDZPQ | – | – | – | – | – | – | – | – | – | – | 4 | 1484 | 4 | 1484 | 0 | 0 | 0 | 0 |
